Our source for the IC50 and MIC values is patent US12473283B2, “Compounds and their use” (Debiopharm International S.A., priority 2019, dated 2025).

Usually IC50 stands for the point on the concentration scale where inhibition reaches its midpoint. By MIC is commonly meant the lowest concentration that inhibits growth of the organism. Lower therefore signals greater potency.

SMILES strings stand for the structures. In brackets after ≈: the same amount, converted by molar mass. Like-named read-outs stand apart in the source and are kept apart here.

Test [1] concerns the target FabI enzyme from Escherichia coli (Escherichia coli, UniProt P0AEK4). Briefly: Inhibition of FabI enzyme, rate of NADH consumption. The class given is biochemical. Here is the method:
(§1) Inhibition of FabI enzyme from Acinetobacter baumannii and Escherichia coli was tested by measuring the rate of NADH consumption (Δabsorbance at 340 nm/min) at 30° C. in 96-well plate format using an automated plate reader in the presence or absence of the test compounds. The assay mixture contained 100 mM Tris-HCl, pH 7.25 (A. baumannii) or 7.5 (E. coli), 100 mM ammonium acetate, 0.02% (A. baumannii) or 0.05% (E. coli) Pluronic F-68, 25 μM crotonyl ACP, 50 μM NADH, 25 pM (A. baumannii) or 50 pM (E. coli) recombinant FabI protein, and 7.5% DMSO. Test compounds were added at concentrations ranging from 0.17 to 10,000 nM in a final well volume of 100 μl. This dose-response inhibitory assay was performed using a 10-point, serial dilution series for each test compound. IC50 values for each test compound were assigned from logistical sigmoid curve-fitting of the inhibition dose response curves.

Test [2] deals with FabI enzyme from Acinetobacter baumannii (Acinetobacter baumannii, UniProt D0CAD5). Described as above. Type of test: biochemical. The procedure: as §1
Test [3] has as its system S. aureus ATCC 29213. In words: Broth microdilution MIC assay. Type of test: cell-based. As to conditions: Staphylococcus aureus, ATCC29213; CA-MHB, 35° C., 20 hours. Here is the method:
(§2) The antibacterial activity of FabI inhibitors against select Gram-negative and Gram-positive bacterial species including susceptible and multi-drug resistant A. baumannii, E. coli, K. pneumoniae and S. aureus was tested using the broth microdilution Minimal Inhibitory Concentration (MIC) assay following CLSI guidelines for insoluble compounds. Test articles were serially diluted 2-fold in 100% dimethyl sulfoxide (DMSO) and then diluted 100-fold into cation adjusted Mueller-Hinton broth (CA-MHB) to achieve a 10-point test concentration range in 1% DMSO. Final compound concentrations were 0.016-8 μg/ml for S. aureus or 0.06-32 μg/ml for the Gram-negative species. MIC test plates were then prepared by transferring 100 μl of the final assay medium (test article in CA-MHB, 1% DMSO) into the appropriate wells of a sterile, low binding 96-well polystyrene plate. Direct colony suspension inoculums of the test strains were freshly prepared per CLSI guidelines, and the appropriate test wells were inoculated to achieve a final bacterial cell density of 5×10^5 CFU/ml. Growth control (no test article) and negative control (no bacterial inoculum) wells were also included. Exposure to light was minimized during all stages of assay preparation. […] Bacterial growth was then determined by measuring the optical density at 600 nm (OD600) using a SpectraMax Plus plate-reader spectrophotometer.
Background: Broth dilution looks for growth in wells or tubes with falling amounts of substance.

Test [4] relates to E. coli AG100. In words: Broth microdilution MIC assay. Type of test: cell-based. As to conditions: Escherichia coli, CA-MHB, 35° C., 20 hours. Here is the method:
as §2

The test system of test [5] is A. baumannii ATCC BAA1605. In words: Broth microdilution MIC assay. The class given is cell-based. The conditions noted are these: Acinetobacter baumannii, ATCCBAA1605; CA-MHB, 35° C., 20 hours. The procedure: as §2
In test [6] the test system is K. pneumoniae A6030827. In words: Broth microdilution MIC assay. The class given is cell-based. As to conditions: Klebsiella pneumoniae, CA-MHB, 35° C., 20 hours. Here is the method:
as §2

Setting [7] is: recombinant FabI, 30° C., pH 7.25, read-out: A. baumannii Fabl IC50.
[8] abbreviates: recombinant FabI, 30° C., pH 7.5, read-out: E. coli Fabl IC50.

Sequence of FabI enzyme from Escherichia coli (P0AEK4 whole entry): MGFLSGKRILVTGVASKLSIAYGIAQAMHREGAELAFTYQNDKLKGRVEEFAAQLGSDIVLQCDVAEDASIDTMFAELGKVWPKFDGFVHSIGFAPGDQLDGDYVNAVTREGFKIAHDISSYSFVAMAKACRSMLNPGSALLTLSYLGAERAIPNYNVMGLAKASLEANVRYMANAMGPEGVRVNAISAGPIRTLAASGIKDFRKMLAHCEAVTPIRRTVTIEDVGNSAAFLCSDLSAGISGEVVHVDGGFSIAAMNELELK
Sequence of FabI enzyme from Acinetobacter baumannii (D0CAD5 entry or part of it): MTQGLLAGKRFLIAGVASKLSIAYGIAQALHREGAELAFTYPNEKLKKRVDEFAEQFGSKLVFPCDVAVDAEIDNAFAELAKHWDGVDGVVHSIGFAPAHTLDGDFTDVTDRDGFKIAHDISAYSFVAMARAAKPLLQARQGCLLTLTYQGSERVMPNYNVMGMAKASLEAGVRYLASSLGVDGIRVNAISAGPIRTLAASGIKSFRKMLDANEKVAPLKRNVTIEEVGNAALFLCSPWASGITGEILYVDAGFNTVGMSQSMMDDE

With `Cc1c(CN(C)C(=O)/C=C/c2cnc3c(c2)CC[C@H](N)C(=O)N3)sc2ccccc12.Cl` (single isomer, unassigned) [Compound 119, hydrochloride], the IC50 in test [1] and in test [2] was < 10 nM in each case.
As to `Cc1oc2ccccc2c1CN(C)C(=O)/C=C/c1cnc2c(c1)CCC(N)C(=O)N2.Cl` (stereo not drawn) [Compound 94, (E)-3-(7-amino-8-oxo-6,7,8,9-tetrahydro-5H-pyrido[2,3-b]azepin-3-yl)-N-methyl-N-((2-methylbenzofuran-3-yl)methyl)acrylamide hydrochloride], the MIC in test [3] was ≤ 4 µg/mL; in test [4], 16 µg/mL; in test [5], ≤ 4 µg/mL; in test [6] it was ≤ 4 µg/mL. Further, the half-maximal inhibitory concentration (IC50) in test [2] is < 10 nM.
As for `Cc1c(CN(C)C(=O)/C=C/c2cnc3c(c2)CCC(N(C)C)C(=O)N3)oc2ccccc12` (stereo not drawn) [Compound 95, (E)-3-(7-(dimethylamino)-8-oxo-6,7,8,9-tetrahydro-5H-pyrido[2,3-b]azepin-3-yl)-N-methyl-N-((3-methylbenzofuran-2-yl)methyl)acrylamide], the MIC in test [3], in test [4], in test [5] and in test [6] was ≤ 4 µg/mL in each case. Also, the IC50 in test [2] (setting [7]) is < 10 nM.
In the case of `Cc1c(CN(C)C(=O)/C=C/c2cnc3c(c2)CC[C@H](N)C(=O)N3)oc2ccccc12.Cl` (single isomer, unassigned) [Compound 71, hydrochloride], the IC50 in test [1] and in test [2] was < 10 nM throughout.
Turning to `Cc1c(CN(C)C(=O)/C=C/c2cnc3c(c2)CC[C@H](N2CC(O)C2)C(=O)N3)oc2ccccc12` (single isomer, unassigned) [Compound 171], the MIC in test [3], in test [4], in test [5] and in test [6] was ≤ 4 µg/mL each time. Moreover, the IC50 in test [2] (setting [7]) was < 10 nM.
As for `Cc1c(CN(C)C(=O)/C=C/c2cnc3c(c2)CCC(N2CC4(CCOCC4)C2)C(=O)N3)oc2ccccc12` (stereo not drawn) [Compound 176, (E)-N-methyl-N-((3-methylbenzofuran-2-yl)methyl)-3-(8-oxo-7-(7-oxa-2-azaspiro[3.5]nonan-2-yl)-6,7,8,9-tetrahydro-5H-pyrido[2,3-b]azepin-3-yl)acrylamide], the MIC in test [3], in test [4], in test [5] and in test [6] was ≤ 4 µg/mL in each case. The IC50 in test [2] (setting [7]) is < 10 nM.
Regarding `Cc1c(CN(C)C(=O)/C=C/c2cnc3c(c2)CCC(N)C(=O)N3)oc2c(Cl)cccc12.O=C(O)C(F)(F)F` (stereo not drawn) [Compound 92, (E)-3-(7-amino-8-oxo-6,7,8,9-tetrahydro-5H-pyrido[2,3-b]azepin-3-yl)-N-((7-chloro-3-methylbenzofuran-2-yl)methyl)-N-methylacrylamide 2,2,2-trifluoroacetate], the MIC is ≤ 4 µg/mL in test [3], ≤ 4 µg/mL in test [4], 8 µg/mL in test [5] and ≤ 4 µg/mL in test [6]. In test [2], the IC50 was < 10 nM.
With `Cc1oc2c(N)cccc2c1CN(C)C(=O)/C=C/c1cnc2c(c1)CCC(N1CCCC1)C(=O)N2` (stereo not drawn) [Compound 191, (E)-N-((7-amino-2-methylbenzofuran-3-yl)methyl)-N-methyl-3-(8-oxo-7-(pyrrolidin-1-yl)-6,7,8,9-tetrahydro-5H-pyrido[2,3-b]azepin-3-yl)acrylamide], the minimal inhibitory concentration (MIC) in test [3] was ≤ 4 µg/mL; in test [4], 8 µg/mL (≈ 16.9 µM); in test [5], ≤ 4 µg/mL. Also, in test [1] (setting [8]), the IC50 was < 10 nM.
For `Cc1c(CN(C)C(=O)/C=C/c2cnc3c(c2)CCC(N2CCS(=O)(=O)CC2)C(=O)N3)oc2ccccc12` (stereo not drawn) [Compound 179, (E)-3-(7-(1,1-dioxidothiomorpholino)-8-oxo-6,7,8,9-tetrahydro-5H-pyrido[2,3-b]azepin-3-yl)-N-methyl-N-((3-methylbenzofuran-2-yl)methyl)acrylamide], the minimal inhibitory concentration (MIC) in test [3] is ≤ 4 µg/mL; in test [4], 8 µg/mL (≈ 15.3 µM); in test [5] it was ≤ 4 µg/mL; in test [6] it was 8 µg/mL (≈ 15.3 µM). The IC50 in test [2] (setting [7]) was < 10 nM.
As to `Cc1c(CN(C)C(=O)C=Cc2cnc3c(c2)CCC(N)C(=O)N3)oc2cccc(OC3CCC(N)CC3)c12` (single isomer, unassigned) [Compound 86], the MIC in test [3], in test [4], in test [5] and in test [6] was ≤ 4 µg/mL throughout. Further, in test [2] (setting [7]), the IC50 is < 10 nM.
Regarding `Cc1oc2ccccc2c1CN(C)C(=O)/C=C/c1cnc2c(c1)NC[C@H](N1CC3(COC3)C1)C(=O)N2` (single isomer, unassigned) [Compound 35], the MIC in test [3] and in test [5] was ≤ 4 µg/mL in each case. Moreover, the IC50 in test [1] (setting [8]) and in test [2] (setting [7]) was < 10 nM each time.
Turning to `Cc1oc2c(N)cccc2c1CN(C)C(=O)/C=C/c1cnc2c(c1)CC[C@H](N)C(=O)N2` (single isomer, unassigned) [Compound 193], the MIC in test [3], in test [4] and in test [5] was ≤ 4 µg/mL in each case. Also, the IC50 in test [1] (setting [8]) is < 10 nM.
Turning to `Cc1c(CN(C)C(=O)/C=C/c2cnc3c(c2)CC[C@H](N)C(=O)N3)sc2c(F)cccc12.Cl` (single isomer, unassigned) [Compound 140], the MIC in test [3], in test [4], in test [5] and in test [6] was ≤ 4 µg/mL in each case.
For `Cc1c(CN(C)C(=O)/C=C/c2cnc3c(c2)CC[C@H](N(C)C)C(=O)N3)oc2ccccc12` (single isomer, unassigned) [Compound 96], the minimal inhibitory concentration (MIC) in test [3] is ≤ 4 µg/mL; in test [4], 8 µg/mL (≈ 18.5 µM); in test [5] it was ≤ 4 µg/mL; in test [6] it was ≤ 4 µg/mL. For the same molecule, in test [2] (setting [7]), the IC50 was < 10 nM.
For `Cc1c(CN(C)C(=O)/C=C/c2cnc3c(c2)CC[C@H](N)C(=O)N3)oc2cccc(CNc3cccnc3)c12.Cl.Cl` (single isomer, unassigned) [Compound 167], the MIC in test [3], in test [4], in test [5] and in test [6] was ≤ 4 µg/mL throughout.
For `Cc1c(CN(C)C(=O)/C=C/c2cnc3c(c2)CC[C@H](N2CCOCC2)C(=O)N3)oc2c(F)cccc12` (single isomer, unassigned) [Compound 113], the MIC in test [3] is ≤ 4 µg/mL; in test [4] it was 8 µg/mL (≈ 16.2 µM); in test [5] it was ≤ 4 µg/mL; in test [6], ≤ 4 µg/mL. In addition, in test [2] (setting [7]), the IC50 was < 10 nM.
Take `Cc1c(CN(C)C(=O)/C=C/c2cnc3c(c2)NC[C@@H](N2C[C@@H](C)O[C@@H](C)C2)C(=O)N3)oc2ccccc12` (single isomer, unassigned) [Compound 21]: the figures for the MIC in test [3], in test [5] and in test [6] were ≤ 4 µg/mL, ≤ 4 µg/mL and 16 µg/mL (≈ 31.8 µM), respectively. The IC50 in test [1] (setting [8]) was < 10 nM.
As to `Cc1c(CN(C)C(=O)/C=C/c2cnc3c(c2)CC[C@H](N)C(=O)N3)oc2c(Cl)cccc12.Cl` (single isomer, unassigned) [Compound 98], the MIC in test [3], in test [4], in test [5] and in test [6] was ≤ 4 µg/mL in each case.
With `Cc1oc2ccccc2c1CN(C)C(=O)/C=C/c1cnc2c(c1)CCC(N1CCOCC1)C(=O)N2` (stereo not drawn) [Compound 173, (E)-N-methyl-N-((2-methylbenzofuran-3-yl)methyl)-3-(7-morpholino-8-oxo-6,7,8,9-tetrahydro-5H-pyrido[2,3-b]azepin-3-yl)acrylamide], the MIC in test [3] and in test [5] was ≤ 4 µg/mL in each case. Besides, the IC50 in test [1] (setting [8]) and in test [2] (setting [7]) was < 10 nM throughout.
